Reference: patent US12441703B2, “Carboxamides as modulators of sodium channels” (VERTEX PHARMACEUTICALS INCORPORATED, priority 2019, dated 2025)

Target: human NaV 1.8 (Homo sapiens, UniProt Q9Y5Y9)
Experiment: E-VIPR assay for detecting and measuring NaV inhibition properties
Type: cell-based
Details: E-VIPR assay conducted in the presence of human serum; HEK cells expressing truncated human NaV 1.8
Outline: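 Membrane-potential (coumarin/oxonol) readout after 10 s of 10 Hz biphasic electrical stimulation on E-VIPR. Compounds: 11-point 3-fold dilutions, […], 0.625% DMSO, 30 min at room temperature, human serum optional. Cells: HEK expressing truncated human NaV1.8 co-transduced with KIR2.1.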

Sequence of human NaV 1.8 (Q9Y5Y9 whole entry, looked up): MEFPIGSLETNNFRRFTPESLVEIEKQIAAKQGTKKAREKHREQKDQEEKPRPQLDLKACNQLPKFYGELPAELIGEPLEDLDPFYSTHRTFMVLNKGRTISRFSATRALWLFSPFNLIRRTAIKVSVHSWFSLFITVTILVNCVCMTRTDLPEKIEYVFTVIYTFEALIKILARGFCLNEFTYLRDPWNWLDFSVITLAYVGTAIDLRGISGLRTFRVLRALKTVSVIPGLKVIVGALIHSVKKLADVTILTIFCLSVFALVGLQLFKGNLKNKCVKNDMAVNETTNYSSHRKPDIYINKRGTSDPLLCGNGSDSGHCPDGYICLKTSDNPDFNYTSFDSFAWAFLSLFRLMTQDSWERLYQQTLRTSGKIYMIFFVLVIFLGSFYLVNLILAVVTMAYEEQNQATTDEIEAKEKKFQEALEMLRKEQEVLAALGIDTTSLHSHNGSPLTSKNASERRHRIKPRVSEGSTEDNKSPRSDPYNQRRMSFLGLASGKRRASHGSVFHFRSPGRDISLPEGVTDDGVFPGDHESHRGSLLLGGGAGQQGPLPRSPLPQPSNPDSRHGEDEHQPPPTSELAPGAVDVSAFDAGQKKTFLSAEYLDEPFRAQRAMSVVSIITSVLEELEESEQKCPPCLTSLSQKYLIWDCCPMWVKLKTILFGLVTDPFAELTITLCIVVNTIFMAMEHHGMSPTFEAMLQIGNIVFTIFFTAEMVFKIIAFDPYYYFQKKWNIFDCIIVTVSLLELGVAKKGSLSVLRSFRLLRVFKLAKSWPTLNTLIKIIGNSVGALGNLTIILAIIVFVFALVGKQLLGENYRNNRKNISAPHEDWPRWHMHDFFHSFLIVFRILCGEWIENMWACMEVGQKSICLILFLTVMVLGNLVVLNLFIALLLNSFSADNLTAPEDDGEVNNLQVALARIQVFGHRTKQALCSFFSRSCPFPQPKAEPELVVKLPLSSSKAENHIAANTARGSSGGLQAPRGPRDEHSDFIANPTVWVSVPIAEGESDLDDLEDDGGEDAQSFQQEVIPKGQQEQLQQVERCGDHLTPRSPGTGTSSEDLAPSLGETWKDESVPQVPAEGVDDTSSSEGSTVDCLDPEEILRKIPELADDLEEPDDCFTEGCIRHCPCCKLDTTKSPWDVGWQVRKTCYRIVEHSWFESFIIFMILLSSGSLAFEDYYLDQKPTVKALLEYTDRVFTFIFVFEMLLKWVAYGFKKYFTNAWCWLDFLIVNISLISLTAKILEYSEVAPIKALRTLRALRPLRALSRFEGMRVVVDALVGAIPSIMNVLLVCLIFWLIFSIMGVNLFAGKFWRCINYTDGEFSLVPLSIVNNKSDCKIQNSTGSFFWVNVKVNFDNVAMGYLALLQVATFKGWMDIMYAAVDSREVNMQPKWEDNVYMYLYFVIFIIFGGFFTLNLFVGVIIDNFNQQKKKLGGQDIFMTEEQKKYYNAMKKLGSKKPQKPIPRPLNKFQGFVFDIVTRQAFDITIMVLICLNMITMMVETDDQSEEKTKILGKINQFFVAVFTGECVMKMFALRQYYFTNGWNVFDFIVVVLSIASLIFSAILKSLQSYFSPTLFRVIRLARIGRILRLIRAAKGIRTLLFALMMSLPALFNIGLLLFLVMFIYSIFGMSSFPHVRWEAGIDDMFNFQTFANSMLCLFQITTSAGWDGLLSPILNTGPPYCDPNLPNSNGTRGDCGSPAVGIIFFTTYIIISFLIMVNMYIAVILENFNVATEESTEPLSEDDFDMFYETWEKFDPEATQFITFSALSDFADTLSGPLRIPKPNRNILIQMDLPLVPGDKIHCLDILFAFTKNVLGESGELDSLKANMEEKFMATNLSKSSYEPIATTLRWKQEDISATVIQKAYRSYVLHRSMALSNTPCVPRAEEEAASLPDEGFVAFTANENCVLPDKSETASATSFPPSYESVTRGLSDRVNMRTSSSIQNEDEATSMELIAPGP

| Structure (SMILES) | IC50 [nM] |
| --- | --- |
| Cc1c(Oc2ccc(C(F)(F)F)c(C)c2C(=O)Nc2ccc(C(N)=O)nc2)ccc(OC(F)(F)F)c1F [Compound 289, 5-[[6-[3-Fluoro-2-Methyl-4-(Trifluoromethoxy)Phenoxy]-2-Methyl-3-(Trifluoromethyl)Benzoyl]Amino]Pyridine-2-Carboxamide] | 39 |

Same assay, conditions: E-VIPR assay conducted in the presence of human serum; HEK cells expressing truncated human NaV 1.8; read-out: IC50

| Structure (SMILES) | IC50 [nM] |
| --- | --- |
| COc1cc(OC(F)(F)F)ccc1Oc1cc(OC)c(C(F)(F)F)c(C)c1C(=O)Nc1ccnc(C(N)=O)c1 [Compound 283, 4-[[4-Methoxy-6-[2-Methoxy-4-(Trifluoromethoxy)Phenoxy]-2-Methyl-3-(Trifluoromethyl)Benzoyl]Amino]Pyridine-2-Carboxamide] | 4.2 |
| COc1cc(OC(F)(F)F)ccc1Oc1cc(C(F)(F)F)c(OC)c(F)c1C(=O)Nc1ccnc(C(N)=O)c1 [Compound 284, 4-[[2-Fluoro-3-Methoxy-6-[2-Methoxy-4-(Trifluoromethoxy)Phenoxy]-4-(Trifluoromethyl)Benzoyl]Amino]Pyridine-2-Carboxamide] | 4 |
| Cc1cnc(C(N)=O)cc1NC(=O)c1c(Oc2ccc(OC(F)(F)F)cc2C)ccc(C(F)(F)F)c1F [Compound 285, 4-[[2-Fluoro-6-[2-Methyl-4-(Trifluoromethoxy)Phenoxy]-3-(Trifluoromethyl)Benzoyl]Amino]-5-Methyl-Pyridine-2-Carboxamide] | 26 |
| Cc1cc(OC(F)(F)F)ccc1Oc1ccc(Cl)c(F)c1C(=O)Nc1ccnc(C(N)=O)c1 [Compound 286, 4-[[3-Chloro-2-Fluoro-6-[2-Methyl-4-(Trifluoromethoxy)Phenoxy]Benzoyl]Amino]Pyridine-2-Carboxamide] | 14 |
| Cc1c(C2CC2)ccc(Oc2ccc(OC(F)(F)F)cc2Cl)c1C(=O)Nc1ccc(C(N)=O)nc1 [Compound 287, 5-[[6-[2-Chloro-4-(Trifluoromethoxy)Phenoxy]-3-Cyclopropyl-2-Methyl-Benzoyl]Amino]Pyridine-2-Carboxamide] | 590 |
| Cc1cnc(C(N)=O)cc1NC(=O)c1c(Oc2ccc(OC(F)(F)F)c(F)c2C)ccc(C(F)(F)F)c1C [Compound 288, 4-[[6-[3-Fluoro-2-Methyl-4-(Trifluoromethoxy)Phenoxy]-2-Methyl-3-(Trifluoromethyl)Benzoyl]Amino]-5-Methyl-Pyridine-2-Carboxamide] | 20.3 |
| Cc1c(Oc2ccc(C(F)(F)F)c(C)c2C(=O)Nc2ccnc(C(N)=O)c2)ccc(OC(F)(F)F)c1F [Compound 290, 4-[[6-[3-Fluoro-2-Methyl-4-(Trifluoromethoxy)Phenoxy]-2-Methyl-3-(Trifluoromethyl)Benzoyl]Amino]Pyridine-2-Carboxamide] | 9.9 |
| Cc1cnc(C(N)=O)cc1NC(=O)c1c(Oc2ccc(OC(F)(F)F)c(F)c2C)ccc(C(F)(F)F)c1F [Compound 291, 4-[[2-Fluoro-6-[3-Fluoro-2-Methyl-4-(Trifluoromethoxy)Phenoxy]-3-(Trifluoromethyl)Benzoyl]Amino]-5-Methyl-Pyridine-2-Carboxamide] | 12.8 |
| Cc1c(Oc2ccc(C(F)(F)F)c(F)c2C(=O)Nc2ccc(C(N)=O)nc2)ccc(OC(F)(F)F)c1F [Compound 292, 5-[[2-Fluoro-6-[3-Fluoro-2-Methyl-4-(Trifluoromethoxy)Phenoxy]-3-(Trifluoromethyl)Benzoyl]Amino]Pyridine-2-Carboxamide] | 54.5 |
| Cc1c(Oc2ccc(C(F)(F)F)c(F)c2C(=O)Nc2ccnc(C(N)=O)c2)ccc(OC(F)(F)F)c1F [Compound 293, 4-[[2-Fluoro-6-[3-Fluoro-2-Methyl-4-(Trifluoromethoxy)Phenoxy]-3-(Trifluoromethyl)Benzoyl]Amino]Pyridine-2-Carboxamide] | 3.9 |
| Cc1c(Oc2ccc(OC(F)(F)F)c(F)c2C(=O)Nc2ccnc(C(N)=O)c2)ccc(OC(F)(F)F)c1F [Compound 294, 4-[[2-Fluoro-6-[3-Fluoro-2-Methyl-4-(Trifluoromethoxy)Phenoxy]-3-(Trifluoromethoxy)Benzoyl]Amino]Pyridine-2-Carboxamide] | 6.8 |
| Cc1c(Oc2ccc(Cl)c(F)c2C(=O)Nc2ccnc(C(N)=O)c2)ccc(OC(F)(F)F)c1F [Compound 295, 4-[[3-Chloro-2-Fluoro-6-[3-Fluoro-2-Methyl-4-(Trifluoromethoxy)Phenoxy]Benzoyl]Amino]Pyridine-2-Carboxamide] | 6.5 |
| Cc1cnc(C(N)=O)cc1NC(=O)c1c(Oc2ccc(OC(F)(F)F)c(F)c2Cl)ccc(C(F)(F)F)c1F [Compound 296, 4-[[6-[2-Chloro-3-Fluoro-4-(Trifluoromethoxy)Phenoxy]-2-Fluoro-3-(Trifluoromethyl)Benzoyl]Amino]-5-Methyl-Pyridine-2-Carboxamide] | 24.6 |
| NC(=O)c1ccc(NC(=O)c2c(Oc3ccc(OC(F)(F)F)c(F)c3Cl)ccc(C(F)(F)F)c2F)cn1 [Compound 297, 5-[[6-[2-Chloro-3-Fluoro-4-(Trifluoromethoxy)Phenoxy]-2-Fluoro-3-(Trifluoromethyl)Benzoyl]Amino]Pyridine-2-Carboxamide] | 74 |
| NC(=O)c1cc(NC(=O)c2c(Oc3ccc(OC(F)(F)F)c(F)c3Cl)ccc(C(F)(F)F)c2F)ccn1 [Compound 298, 4-[[6-[2-Chloro-3-Fluoro-4-(Trifluoromethoxy)Phenoxy]-2-Fluoro-3-(Trifluoromethyl)Benzoyl]Amino]Pyridine-2-Carboxamide] | 9.8 |
| COc1cc(Oc2ccc(F)c(F)c2OC)c(C(=O)Nc2ccnc(C(N)=O)c2)c(F)c1C(F)(F)F [Compound 299, 4-[[6-(3,4-Difluoro-2-Methoxy-Phenoxy)-2-Fluoro-4-Methoxy-3-(Trifluoromethyl)Benzoyl]Amino]Pyridine-2-Carboxamide] | 6.4 |
| CNC(=O)c1cc(NC(=O)c2c(Oc3ccc(F)c(F)c3OC)cc(OC)c(C(F)(F)F)c2NC)ccn1 [Compound 300, 4-[[6-(3,4-Difluoro-2-Methoxy-Phenoxy)-4-Methoxy-2-(Methylamino)-3-(Trifluoromethyl)Benzoyl]Amino]-N-Methyl-Pyridine-2-Carboxamide] | 1400 |
| CNC(=O)c1cc(NC(=O)c2c(Oc3ccc(F)c(F)c3OC)cc(OC)c(C(F)(F)F)c2F)ccn1 [Compound 301, 4-[[6-(3,4-Difluoro-2-Methoxy-Phenoxy)-2-Fluoro-4-Methoxy-3-(Trifluoromethyl)Benzoyl]Amino]-N-Methyl-Pyridine-2-Carboxamide] | 22 |
| COc1c(Oc2cnc(C(F)(F)F)c(OC)c2C(=O)Nc2cc(C(N)=O)ncc2C)ccc(F)c1F [Compound 302, N-(2-carbamoyl-5-methyl-4-pyridyl)-5-(3,4-difluoro-2-methoxy-phenoxy)-3-methoxy-2-(trifluoromethyl)pyridine-4-carboxamide] | 280 |
| COc1c(Oc2ccc(F)c(F)c2C(=O)Nc2ccnc(C(N)=O)c2)ccc(OC(F)(F)F)c1F [Compound 303, 4-[[2,3-difluoro-6-[3-fluoro-2-methoxy-4-(trifluoromethoxy)phenoxy]benzoyl]amino]pyridine-2-carboxamide] | 19 |
| COc1c(Oc2ccc(F)c(F)c2C(=O)Nc2cc(C(N)=O)ncc2C)ccc(OC(F)(F)F)c1F [Compound 304, 4-[[2,3-difluoro-6-[3-fluoro-2-methoxy-4-(trifluoromethoxy)phenoxy]benzoyl]amino]-5-methyl-pyridine-2-carboxamide] | 54 |
| COc1c(Oc2ccc(Cl)c(F)c2C(=O)Nc2ccnc(C(N)=O)c2)ccc(OC(F)(F)F)c1F [Compound 305, 4-[[3-chloro-2-fluoro-6-[3-fluoro-2-methoxy-4-(trifluoromethoxy)phenoxy]benzoyl]amino]pyridine-2-carboxamide] | 2.3 |
| COc1c(Oc2ccc(Cl)c(F)c2C(=O)Nc2ccc(C(N)=O)nc2)ccc(OC(F)(F)F)c1F [Compound 306, 5-[[3-chloro-2-fluoro-6-[3-fluoro-2-methoxy-4-(trifluoromethoxy)phenoxy]benzoyl]amino]pyridine-2-carboxamide] | 19 |
| COc1c(Oc2cc(F)c(F)c(F)c2C(=O)Nc2ccnc(C(N)=O)c2)ccc(OC(F)(F)F)c1F [Compound 307, 4-[[2,3,4-trifluoro-6-[3-fluoro-2-methoxy-4-(trifluoromethoxy)phenoxy]benzoyl]amino]pyridine-2-carboxamide] | 5.9 |
| COc1c(Oc2cc(F)c(F)c(F)c2C(=O)Nc2cnc(C(N)=O)nc2)ccc(OC(F)(F)F)c1F [Compound 308, 5-[[2,3,4-trifluoro-6-[3-fluoro-2-methoxy-4-(trifluoromethoxy)phenoxy]benzoyl]amino]pyrimidine-2-carboxamide] | 36 |
| COc1c(Oc2cc(Cl)c(C)c(F)c2C(=O)Nc2ccnc(C(N)=O)c2)ccc(OC(F)(F)F)c1F [Compound 309, 4-[[4-chloro-2-fluoro-6-[3-fluoro-2-methoxy-4-(trifluoromethoxy)phenoxy]-3-methyl-benzoyl]amino]pyridine-2-carboxamide] | 1.4 |
| COc1c(Oc2ccc(C3CCC3)c(F)c2C(=O)Nc2ccnc(C(N)=O)c2)ccc(OC(F)(F)F)c1F [Compound 310, 4-[[3-cyclobutyl-2-fluoro-6-[3-fluoro-2-methoxy-4-(trifluoromethoxy)phenoxy]benzoyl]amino]pyridine-2-carboxamide] | 2.5 |
| COc1c(Oc2cc3c(cc2C(=O)Nc2ccnc(C(N)=O)c2)OC(F)(F)O3)ccc(OC(F)(F)F)c1F [Compound 311, 4-[[2,2-difluoro-6-[3-fluoro-2-methoxy-4-(trifluoromethoxy)phenoxy]-1,3-benzodioxole-5-carbonyl]amino]pyridine-2-carboxamide] | 13 |
| COc1c(Oc2ccc(C(F)(F)F)c(C)c2C(=O)Nc2cc(C(N)=O)ncc2C)ccc(OC(F)(F)F)c1F [Compound 312, 4-[[6-[3-fluoro-2-methoxy-4-(trifluoromethoxy)phenoxy]-2-methyl-3-(trifluoromethyl)benzoyl]amino]-5-methyl-pyridine-2-carboxamide] | 7.9 |
